From US6518243B1, “Desleucyl glycopeptide antibiotics and methods of making same” (Trustees of Princeton University, priority 1999, dated 2003)

Key:
Assay in all cases: Zone of inhibition screen, 96 well agar array format
Assay type in all cases: cell-based
Parameters in all cases: scale not given here
[1] = test system: S. epidermidis (ATCC 12228)
Outline: (§1)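 Panel screening of every compound against several bacterial strains, among them E. faecium ATCC 49624, was done in a 96-well agar array.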

E. faecalis (CL 4877) = test system: E. faecalis (CL 4877)
Outline: as §1

S. aureus (ATCC 29213) = test system: S. aureus (ATCC 29213)
Outline: as §1

[2] = zone of inhibition relative to 1 mg/ml p-chlorobiphenylvancomycin
[3] = zone of inhibition relative to 1 mg/ml stock solution of p-chlorobiphenylvancomycin

Structure (SMILES)	zone score, S. epidermidis ATCC 12228 [1, 2]	zone score, E. faecalis CL 4877 (E. faecalis (CL 4877); [2])	zone score, S. aureus ATCC 29213 (S. aureus (ATCC 29213); [2])	other results
CC(=O)Oc1cc(C(=O)NC2C(=O)NC(CC(N)=O)C(=O)NC3C(=O)NC4C(=O)NC(C(=O)NC(C(=O)O)c5cc(O)cc(O)c5-c5cc4ccc5O)C(O)c4ccc(c(Cl)c4)Oc4cc3cc(c4OC3OC(CO)C(O)C(O)C3OC3CC(C)(NCc4ccc(-c5ccc(Cl)cc5)cc4)C(O)C(C)O3)Oc3ccc(cc3Cl)C2O)cc(OC(C)=O)c1OC(C)=O (centres unmarked) [Compound 250]	2	–	–	–
COC(=O)CCCC(=O)NC1C(=O)NC(CC(N)=O)C(=O)NC2C(=O)NC3C(=O)NC(C(=O)NC(C(=O)O)c4cc(O)cc(O)c4-c4cc3ccc4O)C(O)c3ccc(c(Cl)c3)Oc3cc2cc(c3OC2OC(CO)C(O)C(O)C2OC2CC(C)(NCc3ccc(-c4ccc(Cl)cc4)cc3)C(O)C(C)O2)Oc2ccc(cc2Cl)C1O (centres unmarked) [Compound 304]	2	–	–	–
Cc1cn(CC(=O)NC2C(=O)NC(CC(N)=O)C(=O)NC3C(=O)NC4C(=O)NC(C(=O)NC(C(=O)O)c5cc(O)cc(O)c5-c5cc4ccc5O)C(O)c4ccc(c(Cl)c4)Oc4cc3cc(c4OC3OC(CO)C(O)C(O)C3OC3CC(C)(NCc4ccc(-c5ccc(Cl)cc5)cc4)C(O)C(C)O3)Oc3ccc(cc3Cl)C2O)c(=O)[nH]c1=O (centres unmarked) [Compound 207]	2	–	–	–
CC(=O)N1CCC(C(=O)NC2C(=O)NC(CC(N)=O)C(=O)NC3C(=O)NC4C(=O)NC(C(=O)NC(C(=O)O)c5cc(O)cc(O)c5-c5cc4ccc5O)C(O)c4ccc(c(Cl)c4)Oc4cc3cc(c4OC3OC(CO)C(O)C(O)C3OC3CC(C)(NCc4ccc(-c5ccc(Cl)cc5)cc4)C(O)C(C)O3)Oc3ccc(cc3Cl)C2O)CC1 (centres unmarked) [Compound 99]	–	–	–	zone score, S. epidermidis ATCC 12228 [1, 3]: 2
CC1OC(OC2C(Oc3c4cc5cc3Oc3ccc(cc3Cl)C(O)C3NC(=O)C(NC(=O)C5NC(=O)C(CC(N)=O)NC(=O)C(NC(=O)Cc5cccs5)C(O)c5ccc(c(Cl)c5)O4)c4ccc(O)c(c4)-c4c(O)cc(O)cc4C(C(=O)O)NC3=O)OC(CO)C(O)C2O)CC(C)(NCc2ccc(-c3ccc(Cl)cc3)cc2)C1O (centres unmarked) [Compound 318]	2	–	–	–
CC1OC(OC2C(Oc3c4cc5cc3Oc3ccc(cc3Cl)C(O)C3NC(=O)C(NC(=O)C5NC(=O)C(CC(N)=O)NC(=O)C(NC(=O)c5cccc(F)c5)C(O)c5ccc(c(Cl)c5)O4)c4ccc(O)c(c4)-c4c(O)cc(O)cc4C(C(=O)O)NC3=O)OC(CO)C(O)C2O)CC(C)(NCc2ccc(-c3ccc(Cl)cc3)cc2)C1O (centres unmarked) [Compound 259]	2	–	–	–
CC1OC(OC2C(Oc3c4cc5cc3Oc3ccc(cc3Cl)C(O)C3NC(=O)C(NC(=O)C5NC(=O)C(CC(N)=O)NC(=O)C(NC(=O)Cc5ccc(F)c(F)c5)C(O)c5ccc(c(Cl)c5)O4)c4ccc(O)c(c4)-c4c(O)cc(O)cc4C(C(=O)O)NC3=O)OC(CO)C(O)C2O)CC(C)(NCc2ccc(-c3ccc(Cl)cc3)cc2)C1O (centres unmarked) [Compound 252]	2	–	–	–
C[C@H]1O[C@H](O[C@H]2[C@H](Oc3c4cc5cc3Oc3ccc(cc3Cl)[C@@H](O)[C@@H](NC(=O)c3ccoc3)C(=O)N[C@@H](CC(N)=O)C(=O)N[C@H]5C(=O)N[C@H]3C(=O)N[C@H](C(=O)N[C@@H](C(=O)O)c5cc(O)cc(O)c5-c5cc3ccc5O)[C@H](O)c3ccc(c(Cl)c3)O4)O[C@H](CO)[C@@H](O)[C@@H]2O)C[C@@](C)(NCc2ccc(-c3ccc(Cl)cc3)cc2)[C@H]1O [Compound 260]	2	–	–	–
CC1OC(OC2C(Oc3c4cc5cc3Oc3ccc(cc3Cl)C(O)C3NC(=O)C(NC(=O)C5NC(=O)C(CC(N)=O)NC(=O)C(NC(=O)c5ccc(O)nc5)C(O)c5ccc(c(Cl)c5)O4)c4ccc(O)c(c4)-c4c(O)cc(O)cc4C(C(=O)O)NC3=O)OC(CO)C(O)C2O)CC(C)(NCc2ccc(-c3ccc(Cl)cc3)cc2)C1O (centres unmarked) [Compound 276]	2	–	–	–
CC1OC(OC2C(Oc3c4cc5cc3Oc3ccc(cc3Cl)C(O)C3NC(=O)C(NC(=O)C5NC(=O)C(CC(N)=O)NC(=O)C(NC(=O)CNC(=O)CNC(=O)OC(C)(C)C)C(O)c5ccc(c(Cl)c5)O4)c4ccc(O)c(c4)-c4c(O)cc(O)cc4C(C(=O)O)NC3=O)OC(CO)C(O)C2O)CC(C)(NCc2ccc(-c3ccc(Cl)cc3)cc2)C1O (centres unmarked) [Compound 223]	–	2	2	–
CC1OC(OC2C(Oc3c4cc5cc3Oc3ccc(cc3Cl)C(O)C3NC(=O)C(NC(=O)C5NC(=O)C(CC(N)=O)NC(=O)C(NC(=O)CNC(=O)CNC(=O)CNC(=O)CNC(=O)OCc5ccccc5)C(O)c5ccc(c(Cl)c5)O4)c4ccc(O)c(c4)-c4c(O)cc(O)cc4C(C(=O)O)NC3=O)OC(CO)C(O)C2O)CC(C)(NCc2ccc(-c3ccc(Cl)cc3)cc2)C1O (centres unmarked) [Compound 214]	–	2	2	–
CC(=O)Nc1ccc(C(=O)NC2C(=O)NC(CC(N)=O)C(=O)NC3C(=O)NC4C(=O)NC(C(=O)NC(C(=O)O)c5cc(O)cc(O)c5-c5cc4ccc5O)C(O)c4ccc(c(Cl)c4)Oc4cc3cc(c4OC3OC(CO)C(O)C(O)C3OC3CC(C)(NCc4ccc(-c5ccc(Cl)cc5)cc4)C(O)C(C)O3)Oc3ccc(cc3Cl)C2O)cc1 (centres unmarked) [Compound 265]	–	2	2	–
COc1ccc(C=CC(=O)NC2C(=O)NC(CC(N)=O)C(=O)NC3C(=O)NC4C(=O)NC(C(=O)NC(C(=O)O)c5cc(O)cc(O)c5-c5cc4ccc5O)C(O)c4ccc(c(Cl)c4)Oc4cc3cc(c4OC3OC(CO)C(O)C(O)C3OC3CC(C)(NCc4ccc(-c5ccc(Cl)cc5)cc4)C(O)C(C)O3)Oc3ccc(cc3Cl)C2O)cc1 (centres unmarked) [Compound 273]	2	–	–	–
CC(NCCCCC(N)C(=O)NC1C(=O)NC(CC(N)=O)C(=O)NC2C(=O)NC3C(=O)NC(C(=O)NC(C(=O)O)c4cc(O)cc(O)c4-c4cc3ccc4O)C(O)c3ccc(c(Cl)c3)Oc3cc2cc(c3OC2OC(CO)C(O)C(O)C2OC2CC(C)(NCc3ccc(-c4ccc(Cl)cc4)cc3)C(O)C(C)O2)Oc2ccc(cc2Cl)C1O)=C1C(=O)CC(C)(C)CC1=O (centres unmarked) [Compound 39]	–	–	–	zone score, E. faecalis CL 4877 (E. faecalis (CL 4877); [3]): 2; zone score, S. aureus ATCC 29213 (S. aureus (ATCC 29213); [3]): 2
CC1OC(OC2C(Oc3c4cc5cc3Oc3ccc(cc3Cl)C(O)C3NC(=O)C(NC(=O)C5NC(=O)C(CC(N)=O)NC(=O)C(NC(=O)CCC=O)C(O)c5ccc(c(Cl)c5)O4)c4ccc(O)c(c4)-c4c(O)cc(O)cc4C(C(=O)O)NC3=O)OC(CO)C(O)C2O)CC(C)(NCc2ccc(-c3ccc(Cl)cc3)cc2)C1O (centres unmarked) [Compound 204]	–	2	2	–
CC1OC(OC2C(Oc3c4cc5cc3Oc3ccc(cc3Cl)C(O)C3NC(=O)C(NC(=O)C5NC(=O)C(CC(N)=O)NC(=O)C(NC(=O)c5cccc(SC(F)(F)F)c5)C(O)c5ccc(c(Cl)c5)O4)c4ccc(O)c(c4)-c4c(O)cc(O)cc4C(C(=O)O)NC3=O)OC(CO)C(O)C2O)CC(C)(NCc2ccc(-c3ccc(Cl)cc3)cc2)C1O (centres unmarked) [Compound 248]	–	2	2	–
CC1OC(OC2C(Oc3c4cc5cc3Oc3ccc(cc3Cl)C(O)C3NC(=O)C(NC(=O)C5NC(=O)C(CC(N)=O)NC(=O)C(NC(=O)CON)C(O)c5ccc(c(Cl)c5)O4)c4ccc(O)c(c4)-c4c(O)cc(O)cc4C(C(=O)O)NC3=O)OC(CO)C(O)C2O)CC(C)(NCc2ccc(-c3ccc(Cl)cc3)cc2)C1O (centres unmarked) [Compound 222]	–	2	2	–
CC(=O)NCSCC(N)C(=O)NC1C(=O)NC(CC(N)=O)C(=O)NC2C(=O)NC3C(=O)NC(C(=O)NC(C(=O)O)c4cc(O)cc(O)c4-c4cc3ccc4O)C(O)c3ccc(c(Cl)c3)Oc3cc2cc(c3OC2OC(CO)C(O)C(O)C2OC2CC(C)(NCc3ccc(-c4ccc(Cl)cc4)cc3)C(O)C(C)O2)Oc2ccc(cc2Cl)C1O (centres unmarked) [Compound 49]	–	–	–	zone score, E. faecalis CL 4877 (E. faecalis (CL 4877); [3]): 2; zone score, S. aureus ATCC 29213 (S. aureus (ATCC 29213); [3]): 2
